This is an account of results in patent US20240142438A1, “MULTI-ORGAN MODEL” (CELLARTGEN INC., priority 2021, published 2024).

One series concerns liver organoid. Put plainly: Candidate drugs on liver organoid in multi-organ NASH organoid model (chip). As to conditions: oleic acid 500 μM + drug 50 μM, 3 days; for low-density cholesterol (LDL) levels in the liver organoids: cholesterol analysis of disrupted organoids, vs No Treatment (NT). It is filed as cell-based, mouse. The procedure:
(§1) A multi-organ NASH model was constructed by applying not only conventional Matrigel, a commercially available culture scaffold, but also a decellularized tissue-derived hydrogel scaffold to culture of each organoid in a multi-organ device. Liver and pancreas organoids were obtained by extracting adult stem cells from a mouse tissue, encapsulated in a decellularized liver tissue-derived matrix (6 mg/ml) and a decellularized pancreas tissue-derived matrix (4 mg/ml), respectively, at a cell density of 70,000 cells/30 μL gel, and cultured. An intestinal organoid was obtained by extracting intestinal crypts from a mouse intestinal tissue and encapsulated in a decellularized intestinal tissue-derived matrix (2 mg/ml) at a cell density of 800 crypts/30 μL gel, and cultured. […] The cardiac organoid was cultured on a hydrogel (20 organoids/70 μL gel bed) prepared by crosslinking of a decellularized cardiac tissue-derived matrix (5 mg/ml) in the form of a 70 μL gel bed at the bottom of the device. The decellularized matrix for culturing each organoid was applied at the optimal concentration for differentiation of each organoid as determined through previous research.
Obeticholic acid (OCA), a semi-synthetic bile acid analog, is an agonist for FXR (farnesoid X receptor) to regulate bile acid metabolism, inflammation, fibrosis, and sugar/lipid metabolism. […] Elafibranor (Ela), a dual agonist for PPARα/δ, is a drug that inhibits fatty acid biosynthesis and glucose biosynthesis in the liver and has been used as a drug for cardiometabolic diseases. Liraglutide (Lira), an agonist for glucagon-like peptide-1 (GLP-1), is a drug that has been used to treat diabetes.

Another series concerns intestinal organoid. Description: Candidate drugs on intestinal organoid in multi-organ NASH organoid model (chip). In kind it is cell-based, mouse. The note with it: oleic acid 500 μM + drug 50 μM, 3 days in liver chamber. The procedure:
as §1

Another series concerns cardiac organoid. Put plainly: Candidate drugs on cardiac organoid in multi-organ NASH organoid model (chip). As to conditions: oleic acid 500 μM + drug 50 μM, 3 days in liver chamber. In kind it is cell-based, mouse. The procedure:
as §1

A further series concerns pancreas organoid. Description: Candidate drugs on pancreas organoid in multi-organ NASH organoid model (chip). It is filed as cell-based, mouse. The note with it: oleic acid 500 μM + drug 50 μM, 3 days in liver chamber. The procedure: as §1
For series [1], the system named is human iPSC-derived pancreas organoids. The note with it: immunofluorescence staining; oleic acid 500 μM + drug 50 μM, 3 days in liver chamber.
Method: Human iPSC-derived liver organoids were differentiated into hepatic endoderm cells through endoderm, and then a total of 500,000 cells including the hepatic endoderm cells, vascular endothelial cells (HUVEC) and mesenchymal stem cells (hMSC) at a ratio of 10:7:2 were mixed in 10 μL of culture medium. The mixture was coated onto 10 μL of a decellularized liver tissue-derived matrix (LEM) to induce the formation of three-dimensional organoids. […] Human iPSC-derived pancreas organoids were differentiated into beta cells through endoderm, gut endoderm, pancreatic endoderm, and pancreatic progenitor cells, and then a total of 500,000 cells including the beta cells, vascular endothelial cells (HUVEC) and mesenchymal stem cells (hMSC) at a ratio of 10:7:2 were mixed in 10 μL of culture medium. The mixture was coated onto 10 μL of a decellularized pancreas tissue-derived matrix (PEM) to induce the formation of three-dimensional organoids. […] Each organoids cultured in a decellularized tissue-derived matrix was seeded into a multi-organ microfluidic device and then cultured in a normal culture medium suitable for each organ for 2 days. […]
Series [2] concerns human iPSC-derived intestinal organoids. As to conditions: immunofluorescence staining, oleic acid 500 μM + drug 50 μM, 3 days in liver chamber.
Method: (§2) Human iPSC-derived intestinal organoids were differentiated into hindgut spheroids through endoderm, encapsulated in Matrigel, and matured for about 20 to 30 days. The mature intestinal organoids were extracted from Matrigel, re-encapsulated in a decellularized intestinal tissue-derived matrix
(§3) (IEM), and further cultured. […] Human iPSC-derived cardiac organoids were induced to mature into cardiomyocytes through mesenchyma and cardiac progenitor cells, and then 400,000 cells were mixed in 20 μL of a decellularized heart tissue-derived matrix (HEM) to prepare three-dimensional organoids. […] Each organoids cultured in a decellularized tissue-derived matrix was seeded into a multi-organ microfluidic device and then cultured in a normal culture medium suitable for each organ for 2 days. Then, the NASH group was treated with oleic acid (500 μM) and cultured for 3 days only in the chamber in which the liver organoid was cultured, and the groups treated with the respective drugs were treated with oleic acid (500 μM) and the respective drugs (50 μM) for 3 days in the chamber in which the liver organoid was cultured. A multi-organ device in which a normal liver organoid (Normal) not treated with the fatty acid was used as a control group.
Series [3] concerns human iPSC-derived liver organoids. Put plainly: Candidate drugs on hiPSC-derived liver organoids in multi-organ NASH model. It is filed as cell-based. As to conditions: oleic acid 500 μM + drug 50 μM, 3 days.
Method: Human iPSC-derived liver organoids were differentiated into hepatic endoderm cells through endoderm, and then a total of 500,000 cells including the hepatic endoderm cells, vascular endothelial cells (HUVEC) and mesenchymal stem cells (hMSC) at a ratio of 10:7:2 were mixed in 10 μL of culture medium. The mixture was coated onto 10 μL of a decellularized liver tissue-derived matrix (LEM) to induce the formation of three-dimensional organoids. […] Human iPSC-derived pancreas organoids were differentiated into beta cells through endoderm, gut endoderm, pancreatic endoderm, and pancreatic progenitor cells, and then a total of 500,000 cells including the beta cells, vascular endothelial cells (HUVEC) and mesenchymal stem cells (hMSC) at a ratio of 10:7:2 were mixed in 10 μL of culture medium. The mixture was coated onto 10 μL of a decellularized pancreas tissue-derived matrix (PEM) to induce the formation of three-dimensional organoids. […] Each organoids cultured in a decellularized tissue-derived matrix was seeded into a multi-organ microfluidic device and then cultured in a normal culture medium suitable for each organ for 2 days. Then, the NASH group was treated with oleic acid (500 μM) and cultured for 3 days only in the chamber in which the liver organoid was cultured, and the groups treated with the respective drugs were treated with oleic acid (500 μM) and the respective drugs (50 μM) for 3 days in the chamber in which the liver organoid was cultured. A multi-organ device in which a normal liver organoid (Normal) not treated with the fatty acid was used as a control group.
Series [4] concerns human iPSC-derived cardiac organoids. The note with it: immunofluorescence staining; oleic acid 500 μM + drug 50 μM, 3 days in liver chamber.
Method: as §2, §3

Entries after “also recorded” stand apart in the source; their conditions may differ.

Turning to `CSc1ccc(C(=O)/C=C/c2cc(C)c(OC(C)(C)C(=O)O)c(C)c2)cc1` [Ela, Elafibranor], the “low-density cholesterol (LDL) levels in the liver organoids” value in the series with liver organoid is recorded as “an improvement in LDL levels compared to the No Treatment (NT) group; also recorded: a greater improvement than Lira”. Further, the “expression level of α-SMA, a fibrosis marker (fibrosis)” value with liver organoid (immunofluorescence staining) was “improved the most”. In addition, in the series on liver organoid (quantitative PCR), the COL1A1 expression result is given as “remarkably effective in reducing the increased expression of COL1A1”; the “expression levels of HNF4A and ALB, hepatic differentiation markers” value is “no significant effect on hepatic differentiation and functional recovery”; the “expression of α-SMA and COL1A1, fibrosis and drug toxicity-related markers” value is on record as “improved”. Also, in the series with intestinal organoid (quantitative PCR), the “expression level of OCLN, a tight junction marker of the gut barrier” value is on record as “not improved”; the “expression levels of CHGA and MUC2, intestinal differentiation markers” value is “not much recovered; also recorded: lower in the Ela-treated group than in No Treatment (NT) group”. Moreover, the “expression of CTNT and F-actin, myocardial differentiation and actin-filament markers” value in the series with cardiac organoid (immunostaining) was “recovered to some extent”. For the same compound, in the series with cardiac organoid (quantitative PCR), the “expression level of ACTC1, a cardiac differentiation marker” value was “recovered”.

On to `O=C1[C@H](CC[C@H](O)c2ccc(F)cc2)[C@@H](c2ccc(O)cc2)N1c1ccc(F)cc1` [Eze, Ezetimibe], for which, in the series with pancreas organoid (quantitative PCR), the “expression level of KRT19, a pancreatic exocrine cell marker” value was “recovered to some extent” and the “expression level of PDX1, an endocrine cell marker” value is reported as “not recovered”. For the same compound, the “low-density cholesterol (LDL) levels in the liver organoids” value in the series on liver organoid was “significantly lower than those in the No Treatment (NT) group”. For the same compound, in the series on liver organoid (quantitative PCR), the “expression levels of HNF4A and ALB, hepatic differentiation markers” value is listed as “recovered to some extent”; the “expression of α-SMA and COL1A1, fibrosis and drug toxicity-related markers” value is “improved”. For the same compound, the “expression levels of insulin and NKX6.1, pancreatic differentiation markers” value in series [1] was “less significantly recovered”. The “expression level of NPC1L1” value in series [2] is “decreased”. Moreover, the “expression level of the differentiation marker, MUC2” value in series [2] (vs No Treatment group) is listed as “recovered to some extent”. Further, the “expression of NPC1L1” value in the series with intestinal organoid (immunostaining) is on record as “the most significant decrease in expression”. Besides, in the series on intestinal organoid (quantitative PCR), the “expression level of OCLN, a tight junction marker of the gut barrier” value is “recovered to some extent”; the “expression levels of CHGA and MUC2, intestinal differentiation markers” value was “not much recovered”; the “gene expression of FGF15 in the intestinal organoid” value was “recovered to some extent”. In series [3] (immunofluorescence staining), the “expression level of FGF19” value is recorded as “recovered only in the OCA-treated group”; the “expression level of α-SMA, a fibrosis and drug toxicity-related marker” value was “decreased to some extent”. The “fatty acid accumulation (BODIPY staining)” value in series [3] is listed as “partially decreased”. The “structure of the liver organoids” value in series [3] (optical microscopy) is on record as “some of the cells in the outer part died”. In series [4], the “expression levels of CTNT and F-actin, myocardial differentiation and actin-filament markers” value was “recovered to some extent”. The “expression level of ACTC1, a cardiac differentiation marker” value with cardiac organoid (quantitative PCR) is “limitations in improving cardiac differentiation/functionality”.

On to `CCCCCCCCCCCCCCCC(=O)N[C@@H](CCC(=O)NCCCC[C@H](NC(=O)[C@H](C)NC(=O)[C@H](C)NC(=O)[C@H](CCC(N)=O)NC(=O)CNC(=O)[C@H](CCC(=O)O)NC(=O)[C@H](CC(C)C)NC(=O)[C@H](Cc1ccc(O)cc1)NC(=O)[C@H](CO)NC(=O)[C@H](CO)NC(=O)[C@@H](NC(=O)[C@H](CC(=O)O)NC(=O)[C@H](CO)NC(=O)[C@@H](NC(=O)[C@H](Cc1ccccc1)NC(=O)[C@@H](NC(=O)CNC(=O)[C@H](CCC(=O)O)NC(=O)[C@H](C)NC(=O)[C@@H](N)Cc1cnc[nH]1)[C@@H](C)O)[C@@H](C)O)C(C)C)C(=O)N[C@@H](CCC(=O)O)C(=O)N[C@@H](Cc1ccccc1)C(=O)N[C@H](C(=O)N[C@@H](C)C(=O)N[C@@H](Cc1c[nH]c2ccccc12)C(=O)N[C@@H](CC(C)C)C(=O)N[C@H](C(=O)N[C@@H](CCCNC(=N)N)C(=O)NCC(=O)N[C@@H](CCCNC(=N)N)C(=O)NCC(=O)O)C(C)C)[C@@H](C)CC)C(=O)O` [Lira, Liraglutide], for which the “epithelial lumen of the pancreas organoids” value in the series with pancreas organoid (optical microscopy) is on record as “increased in thickness, showing the pattern of early fibrosis”. The “expression level of α-SMA, a fibrosis and drug toxicity-related marker” value with pancreas organoid (quantitative PCR) was “pancreatitis and fibrosis were reduced”; in the series with cardiac organoid (immunostaining) it was “fibrosis was not improved”. Also, the “gut barrier and budding of the intestinal organoid” value in the series on intestinal organoid (optical microscopy) is reported as “the gut barrier was maintained to some extent but organoid budding hardly occurred”. In addition, in the series on cardiac organoid (optical microscopy), the “shape of the cardiac organoids” value is “some cells inside the organoids died, inducing severe cardiotoxicity”. The “expression level of α-SMA, a fibrosis and drug toxicity-related marker (fibrosis)” value in the series with cardiac organoid (quantitative PCR) is given as “fibrosis tended to worsen”.
